We go through ten compounds from ChEMBL document CHEMBL5252526, “Small Molecule Kinase Inhibitors for the Treatment of Brain Cancer” (J Med Chem, 2016).

Structures are written as SMILES.

Series [1] can be described thus: Ratio of drug concentration in brain to plasma in mouse assessed as unbound fraction. The format is ADME, cell-free. The following applies: brain and plasma, read-out: K(p,uu,brain).
Series [2] can be described thus: Ratio of AUC (0 to 24 hrs) in brain to plasma in mouse. The settings on record: brain and plasma, read-out: Ratio AUC. Type of series: ADME, cell-free.
Series [3] in a line: Ratio of drug concentration in brain to plasma in rat. Type of series: ADME, cell-free. The following applies: brain and plasma, read-out: BPR.
Series [4] is described as follows: Ratio of drug concentration in brain to plasma in mouse. The format is ADME, cell-free. The following applies: brain and plasma, read-out: BPR.
Series [5] is described as follows: Ratio of drug concentration in CSF to plasma in mouse assessed as unbound fraction. The format is ADME, tissue-based. The following applies: CSF and plasma.
Series [6] can be described thus: Ratio of AUC in brain to plasma in rat at 25 mg/kg, po. The format is ADME, organism-based. The settings on record: brain and plasma, read-out: Ratio AUC.
Series [7] is described as follows: Ratio of AUC in brain to plasma in rat at 75 mg/kg, po. The following applies: brain and plasma, read-out: Ratio AUC. The format is ADME, organism-based.
The nature of series [8]: Ratio of drug concentration in brain to plasma in mouse at 75 mg/kg, po. Type of series: ADME, organism-based. The settings on record: brain and plasma, read-out: BPR.
Series [9] is described as follows: Ratio of drug concentration in brain to plasma in rat at 3.5 mg/kg, iv. The format is ADME, organism-based. The following applies: brain and plasma, read-out: BPR.

For `CCN1CCN(Cc2ccc(Nc3ncc(F)c(-c4cc(F)c5nc(C)n(C(C)C)c5c4)n3)nc2)CC1` [ABEMACICLIB], the Kp uu in [1] was determined as 0.2.

On to `COc1cc(N2CCC(N3CCN(C)CC3)CC2)ccc1Nc1ncnc(Nc2ccccc2S(=O)(=O)C(C)C)n1` [ASP-3026], for which the Kp in [2] worked out at 0.72. On to `COc1cc(Nc2c(C#N)cnc3cc(OCCCN4CCN(C)CC4)c(OC)cc23)c(Cl)cc1Cl` [BOSUTINIB], for which the Kp in series [3] worked out at 0.4. Turning to `COc1cc2c(Oc3ccc(NC(=O)C4(C(=O)Nc5ccc(F)cc5)CC4)cc3F)ccnc2cc1OCCCN1CCOCC1` [FORETINIB], the Kp in series [4] was 0.2. Regarding `COc1cc2ncnc(Nc3ccc(F)c(Cl)c3)c2cc1OCCCN1CCOCC1` [GEFITINIB], the Kp uu in series [1] amounted to 0.02; in series [5] it was 0.09. Regarding `Cc1ccc(C(=O)Nc2ccc(CN3CCN(C)CC3)c(C(F)(F)F)c2)cc1C#Cc1cnc2cccnn12` [PONATINIB], the Kp in [4] was 1.6. Turning to `CC[C@H](CO)Nc1nc(NCc2ccccc2)c2ncn(C(C)C)c2n1` [SELICICLIB], in [6], the Kp came to 0.3.

As for `CC(C)(O)CC(=O)NCCn1ccc2ncnc(Nc3ccc(Oc4cccc(C(F)(F)F)c4)c(Cl)c3)c21` [TAK-285], the Kp in [7] came to 0.24.

Take `Cc1cc(Nc2ncnc3ccc(NC4=NC(C)(C)CO4)cc23)ccc1Oc1ccn2ncnc2c1` [TUCATINIB]: the Kp in [8] is 0.5. Turning to `CN[C@@H]1C[C@H]2O[C@@](C)([C@@H]1OC)n1c3ccccc3c3c4c(c5c6ccccc6n2c5c31)C(=O)N[C@H]4O` [UCN-01], the Kp in series [9] is 0.5.
